The values that follow come from ChEMBL document CHEMBL4184137, “Lysine Deacetylase Inhibitors in Parasites: Past, Present, and Future Perspectives” (J Med Chem, 2017).

One data set concerns the target T1, Histone deacetylase (Plasmodium falciparum, UniProt Q9XYC7).
T1 sequence (Q9XYC7 whole entry): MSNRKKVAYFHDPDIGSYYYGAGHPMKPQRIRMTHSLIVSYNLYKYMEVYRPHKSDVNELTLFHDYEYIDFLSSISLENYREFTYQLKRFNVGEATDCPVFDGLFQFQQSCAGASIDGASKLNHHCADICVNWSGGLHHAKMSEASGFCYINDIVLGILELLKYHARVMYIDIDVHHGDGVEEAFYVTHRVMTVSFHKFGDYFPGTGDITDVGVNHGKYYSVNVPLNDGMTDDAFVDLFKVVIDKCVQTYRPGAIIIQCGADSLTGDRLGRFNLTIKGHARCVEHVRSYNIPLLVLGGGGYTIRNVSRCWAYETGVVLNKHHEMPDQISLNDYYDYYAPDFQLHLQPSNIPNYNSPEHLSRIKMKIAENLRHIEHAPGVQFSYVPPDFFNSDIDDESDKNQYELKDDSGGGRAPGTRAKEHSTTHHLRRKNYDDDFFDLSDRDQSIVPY
The data set is described as follows: Inhibition of HDAC1 in Plasmodium falciparum 3D7 nuclear extract using Ac-RGK(Ac)-AMC fluorogenic peptide as substrate preincubated for 1 hr followed by substrate addition measured after 10 min by fluorescence assay.

In data set [1] the target is T2, Histone deacetylase (Plasmodium falciparum) (UniProt Q9XYC7).
T2 sequence (whole entry): T1 sequence (Q9XYC7 whole entry)
The data set is described as follows: Inhibition of recombinant HDAC1 in recombinant Plasmodium falciparum at 1 uM using Ac-RGK(Ac)-AMC fluorogenic peptide as substrate preincubated for 1 hr followed by substrate addition measured after 10 min by fluorescence assay.

Data set [2] in a line: Selectivity index, ratio of IC50 for HEK293 cells to IC50 for Plasmodium falciparum. The format is toxicity. As to conditions: human, read-out: Ratio IC50.
Data set [3] can be described thus: Selectivity index, ratio of IC50 for HEK293 cells to IC50 for Trypanosoma brucei brucei. It counts as toxicity. As to conditions: human, read-out: Selectivity Index.
The nature of data set [4]: Selectivity index, ratio of IC50 for human NFF cells to IC50 for Plasmodium falciparum. It counts as toxicity. The note with it: read-out: Ratio IC50.
The nature of data set [5]: Selectivity index, ratio of IC50 for human NFF cells to IC50 for Trypanosoma brucei brucei. It counts as toxicity. As to conditions: read-out: Selectivity Index.
Data set [6] concerns Plasmodium falciparum. The data set is described as follows: Antimalarial activity against Plasmodium falciparum using Malstat reagent by parasite lactate dehydrogenase assay. It counts as functional, organism-based.
Another data set has as its system Vero. As to the kind of experiment: Cytotoxicity against African green monkey Vero cells by neutral red assay. It counts as cell-based. The note with it: Chlorocebus sabaeus.
A short description of data set [7]: Selectivity index, ratio of IC50 for African green monkey Vero cells to IC50 for Plasmodium falciparum. It counts as toxicity. The note with it: read-out: Ratio IC50.
In data set [8] the test system is Plasmodium falciparum. As to the kind of experiment: Gametocytocidal activity against transgenic GFP-fused Plasmodium falciparum NF54 […] gametocytes after 72 hrs by Mitotracker Red CMH2XRos staining-based confocal microscopic method. It counts as functional, organism-based. As to conditions: NF54, 72 h.
In a further data set the test system is NFF. The data set is described as follows: Cytotoxicity against human NFF cells after 72 hrs by SRB assay. The format is cell-based.
Data set [9] is described as follows: Selectivity index, ratio of IC50 for human NFF cells to IC50 for asexual-stage of Plasmodium falciparum 3D7. It counts as toxicity. As to conditions: read-out: Ratio IC50.
The nature of data set [10]: Selectivity index, ratio of IC50 for human NFF cells to IC50 for transgenic GFP-fused Plasmodium falciparum NF54 […] gametocyte. It counts as toxicity. As to conditions: read-out: Ratio IC50.
Data set [11] relates to Plasmodium falciparum. The data set is described as follows: Antimalarial activity against asexual-stage of Plasmodium falciparum 3D7 after 24 hrs by microbeta scintillation counting-based [3H]-hypoxanthine incorporation assay. The format is functional, organism-based.

Each structure is given as a SMILES string.

On Histone deacetylase, `C/C=C1\NC(=O)[C@H]2CSSCC/C=C/[C@H](CC(=O)N[C@H](C(C)C)C(=O)N2)OC(=O)[C@H](C(C)C)NC1=O` [ROMIDEPSIN] had an IC50 of 0.0009 µM. In addition, the inhibition in [1] amounted to 48%. In addition, the selectivity ratio in [2], in [3], in [4] and in data set [5] was less than 1 in each case.

On to `Cn1cc(C(=O)Cc2ccccc2)cc1/C=C/C(=O)NO`, for which the concentration for half-maximal inhibition (IC50) in the data set with Plasmodium falciparum [6] was 1.2 to 4 µM; with Vero, more than 20 µM. Besides, in data set [7], the selectivity ratio was 5 to 17.

With `CC(C)(C)c1ccc(NC(=O)NOCCCCCC(=O)NO)cc1`, the results for the IC50 with Plasmodium falciparum [8], in the data set on NFF and with Plasmodium falciparum [11] were 3.45 µM, 4.9 µM and 0.16 µM, respectively. Besides, the selectivity ratio came out at 31 in data set [9] and 2 in data set [10].
